Experimental data as given in patent publication US8552002B2 (Novartis AG, priority 2004, dated 2013).

How the values were obtained:
Format in all cases: biochemical
Tek = molecular target: T1, Tek (Homo sapiens, UniProt Q02763); experiment: Recombinant GST-Tek (Tie-2) tyrosine kinase assay (33P into poly(Glu,Tyr)); conditions: Examples 1 to 169
T1 construct: amino acids 773-1124 of the cytoplasmic kinase domain of human Tek, N-terminally fused to GST; made in house; host or cells: Sf9 insect cells (baculovirus)
Method in brief: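 GST-fused human Tek kinase domain (aa 773-1124), baculovirus-expressed, 150 ng per reaction; 10 μg/mL poly(Glu,Tyr) 4:1, 4.0 μM [γ-33P]ATP, 3 mM MnCl2/3 mM MgCl2, pH 7.5, 30 min at ambient temperature. 33P uptake read on PVDF filters; IC50 by linear regression from four concentrations in duplicate.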

KDR = molecular target: T2, KDR (Homo sapiens, UniProt P35968); experiment: Inhibitory activity against KDR (VEGF-R2), in vitro data of Examples 170 and 207; conditions: 10 μM; Examples 1 to 169; read-out: KDR inhibition at 10 μM
T2 construct: expressed in transfected cells; host or cells: CHO cells
Method in brief: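 KDR tyrosine phosphorylation detected by luminescence after overnight 4° C capture of 20 μg lysate protein with PY20:AP antibody. Lysates came from cells given compound for 2 h at 37° C, then final 20 ng/ml VEGF for 5 min; compound-free medium as control.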

FGFR3 (K650E) = molecular target: T3, FGFR3 (K650E) (Homo sapiens, UniProt P22607, K650E); experiment: Recombinant GST-FGFR-3-K650E tyrosine kinase assay (33P into poly(Glu,Tyr)); conditions: 10 μM; Examples 1 to 169; read-out: FGFR3 (K650E) inhibition at 10 μM
T3 construct: amino acids 411-806 of the cytoplasmic domain of human FGFR-3, N-terminally fused to GST; made in house; host or cells: Sf9 insect cells (baculovirus)
T3 sequence (P22607 411-806 K650E): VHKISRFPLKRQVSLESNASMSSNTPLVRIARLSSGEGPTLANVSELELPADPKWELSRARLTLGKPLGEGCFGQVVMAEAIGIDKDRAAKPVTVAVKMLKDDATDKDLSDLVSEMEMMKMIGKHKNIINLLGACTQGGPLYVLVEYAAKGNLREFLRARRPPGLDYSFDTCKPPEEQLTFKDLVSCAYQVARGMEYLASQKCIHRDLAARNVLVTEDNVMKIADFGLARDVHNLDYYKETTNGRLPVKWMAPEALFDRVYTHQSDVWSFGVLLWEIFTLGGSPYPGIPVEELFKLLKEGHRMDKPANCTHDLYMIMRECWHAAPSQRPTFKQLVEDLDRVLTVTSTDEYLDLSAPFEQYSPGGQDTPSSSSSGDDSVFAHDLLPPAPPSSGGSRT

T1 sequence (Q02763 773-1124): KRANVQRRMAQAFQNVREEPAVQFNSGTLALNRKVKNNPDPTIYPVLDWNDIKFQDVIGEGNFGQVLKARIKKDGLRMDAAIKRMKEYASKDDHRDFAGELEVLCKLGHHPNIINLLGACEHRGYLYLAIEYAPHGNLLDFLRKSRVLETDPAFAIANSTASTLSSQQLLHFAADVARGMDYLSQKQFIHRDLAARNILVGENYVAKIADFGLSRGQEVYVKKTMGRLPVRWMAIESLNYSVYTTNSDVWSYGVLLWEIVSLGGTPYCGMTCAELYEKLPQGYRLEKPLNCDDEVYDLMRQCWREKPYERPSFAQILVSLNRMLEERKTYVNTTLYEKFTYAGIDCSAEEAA
T2 sequence (P35968 20-1356): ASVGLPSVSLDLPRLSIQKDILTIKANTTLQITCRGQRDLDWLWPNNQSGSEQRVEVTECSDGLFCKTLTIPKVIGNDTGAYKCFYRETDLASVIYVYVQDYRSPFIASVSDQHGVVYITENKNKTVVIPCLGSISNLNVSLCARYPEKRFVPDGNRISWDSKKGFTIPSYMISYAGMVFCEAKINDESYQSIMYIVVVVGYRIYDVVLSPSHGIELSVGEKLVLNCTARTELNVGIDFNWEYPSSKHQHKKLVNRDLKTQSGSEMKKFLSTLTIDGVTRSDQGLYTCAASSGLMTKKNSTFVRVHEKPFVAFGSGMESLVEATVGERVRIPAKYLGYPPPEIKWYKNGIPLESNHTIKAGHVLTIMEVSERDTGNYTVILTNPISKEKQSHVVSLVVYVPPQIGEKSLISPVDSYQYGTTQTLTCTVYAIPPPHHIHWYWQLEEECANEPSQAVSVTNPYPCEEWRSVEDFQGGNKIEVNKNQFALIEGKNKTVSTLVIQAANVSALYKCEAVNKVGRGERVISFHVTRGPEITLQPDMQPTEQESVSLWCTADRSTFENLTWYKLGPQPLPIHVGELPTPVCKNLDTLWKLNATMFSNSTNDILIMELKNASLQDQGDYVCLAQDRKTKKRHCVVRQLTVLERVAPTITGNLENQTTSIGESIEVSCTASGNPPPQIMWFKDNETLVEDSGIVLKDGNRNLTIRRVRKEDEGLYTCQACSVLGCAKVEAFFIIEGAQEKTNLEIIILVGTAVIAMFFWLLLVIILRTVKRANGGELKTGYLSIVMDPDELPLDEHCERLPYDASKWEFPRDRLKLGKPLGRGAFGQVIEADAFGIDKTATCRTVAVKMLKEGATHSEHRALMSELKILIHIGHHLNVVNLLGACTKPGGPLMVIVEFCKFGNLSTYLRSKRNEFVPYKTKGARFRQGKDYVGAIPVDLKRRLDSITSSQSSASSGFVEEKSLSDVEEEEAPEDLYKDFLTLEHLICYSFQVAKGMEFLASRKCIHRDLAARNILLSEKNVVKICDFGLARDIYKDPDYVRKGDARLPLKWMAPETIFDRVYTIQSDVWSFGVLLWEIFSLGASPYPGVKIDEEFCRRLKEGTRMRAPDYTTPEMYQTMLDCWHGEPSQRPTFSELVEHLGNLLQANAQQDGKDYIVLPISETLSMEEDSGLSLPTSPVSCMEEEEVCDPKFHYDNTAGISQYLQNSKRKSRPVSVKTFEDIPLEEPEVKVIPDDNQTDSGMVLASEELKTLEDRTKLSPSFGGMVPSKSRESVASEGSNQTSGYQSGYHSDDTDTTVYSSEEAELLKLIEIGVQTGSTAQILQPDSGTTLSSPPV

Row | SMILES | inhibition at 10 µM (Tek) [%] | inhibition at 10 µM (KDR) [%] | inhibition at 10 µM (FGFR3 (K650E)) [%]
1 | COc1cc(NC(=O)N(Cc2cccs2)c2cc(Nc3ccc(N4CCN(C)CC4)cc3)ncn2)c(Cl)c(OC)c1 [Example 56, 3-(2-Chloro-3,5-dimethoxy-phenyl)-1-{6-[4-(4-methyl-piperazin-1-yl)-phenylamino]-pyrimidin-4-yl}-1-thiophen-2-ylmethyl-urea] | 12 to 100 | 67 to 100 | 27 to 100
2 | COc1cc(NC(=O)Nc2cc(Nc3cccc(Cl)c3)ncn2)cc(OC)c1OC [Example 136, 1-[6-(3-Chloro-phenylamino)-pyrimidin-4-yl]-3-(3,4,5-trimethoxy-phenyl)-urea] | 12 to 100 | 67 to 100 | 27 to 100
3 | CCN(CC)c1ccc(Nc2cc(N(C)C(=O)Nc3c(Cl)cccc3Cl)ncn2)cc1 [Example 110, 3-(2,6-Dichloro-phenyl)-1-[6-(4-diethylamino-phenylamino)-pyrimidin-4-yl]-1-methyl-urea] | 12 to 100 | 67 to 100 | 27 to 100
4 | COc1ccc(OC)c(NC(=O)Nc2cc(Nc3ccc(N4CCN(C)CC4)cc3)ncn2)c1 [Example 12, 1-(2,5-Dimethoxy-phenyl)-3-{6-[4-(4-methyl-piperazin-1-yl)-phenyl-amino]-pyrimidin-4-yl}-urea] | 12 to 100 | 67 to 100 | 27 to 100
5 | COc1cc(NC(=O)Nc2cc(Nc3ccc(N4CCN(C)CC4)cc3)ncn2)cc(OC)c1 [Example 18, 1-(3,5-Dimethoxy-phenyl)-3-{6-[4-(4-methyl-piperazin-1-yl)-phenyl-amino]-pyrimidin-4-yl}-urea] | 12 to 100 | 67 to 100 | 27 to 100
6 | CCN(CC)CCOc1ccc(Nc2cc(NC(=O)Nc3ccccc3Cl)ncn2)cc1 [Example 126, 1-(2-Chloro-phenyl)-3-{6-[4-(2-diethylamino-ethoxy)-phenylamino]-pyrimidin-4-yl}-urea] | 12 to 100 | 67 to 100 | 27 to 100
7 | CN(C)c1cccc(Nc2cc(NC(=O)Nc3c(Cl)cccc3Cl)ncn2)c1 [Example 119, 1-(2,6-Dichloro-phenyl)-3-[6-(3-dimethylamino-phenylamino)-pyrimidin-4-yl]-urea] | 12 to 100 | 67 to 100 | 27 to 100
8 | COc1cc(OC)c(Cl)c(NC(=O)Nc2cc(Nc3cccc(CN(C)C)c3)ncn2)c1Cl [Example 157, 1-(2,6-Dichloro-3,5-dimethoxy-phenyl)-3-[6-(3-dimethylaminomethyl-phenylamino)-pyrimidin-4-yl]-urea] | 12 to 100 | 67 to 100 | 27 to 100
9 | COc1cc(NC(=O)N(C)c2cc(Nc3ccccc3)ncn2)c(Cl)c(OC)c1 [Example 49, 3-(2-Chloro-3,5-dimethoxy-phenyl)-1-methyl-1-(6-phenylamino-pyrimidin-4-yl)-urea] | 12 to 100 | 67 to 100 | 27 to 100
10 | CN(C)c1cccc(Nc2cc(N(C)C(=O)Nc3c(Cl)cccc3Cl)ncn2)c1 [Example 120, 3-(2,6-Dichloro-phenyl)-1-[6-(3-dimethylamino-phenylamino)-pyrimidin-4-yl]-1-methyl-urea] | 12 to 100 | 67 to 100 | 27 to 100
11 | COc1cccc(NC(=O)Nc2cc(Nc3cccc(N4CCN(C)CC4)c3)ncn2)c1 [Example 9, 1-(3-Methoxy-phenyl)-3-{6-[3-(4-methyl-piperazin-1-yl)-phenylamino]-py-rimidin-4-yl}-urea] | 12 to 100 | 67 to 100 | 27 to 100
12 | COc1ccc(C)c(NC(=O)Nc2cc(Nc3cccc(N4CCN(C)CC4)c3)ncn2)c1 [Example 27, 1-(5-Methoxy-2-methyl-phenyl)-3-{6-[3-(4-methyl-piperazin-1-yl)-phenyl-amino]-pyrimidin-4-yl}-urea] | 12 to 100 | 67 to 100 | 27 to 100
13 | COc1ccc(C)c(NC(=O)Nc2cc(Nc3cccc(Cl)c3)ncn2)c1 [Example 134, 1-[6-(3-Chloro-phenylamino)-pyrimidin-4-yl]-3-(5-methoxy-2-methyl-phenyl)-urea] | 12 to 100 | 67 to 100 | 27 to 100
14 | COc1cc(OC)c(Cl)c(NC(=O)N(C)c2cc(Nc3cccc(CN4CCN(C(C)C)CC4)c3)ncn2)c1Cl [Example 161, 3-(2,6-Dichloro-3,5-dimethoxy-phenyl)-1-{6-[3-(4-isopropyl-piperazin-1-ylmethyl)-phenylamino]-pyrimidin-4-yl}-1-methyl-urea] | 12 to 100 | 67 to 100 | 27 to 100
15 | COc1ccc(C)c(NC(=O)Nc2cc(Nc3ccc(N4CCN(C)CC4)cc3)ncn2)c1 [Example 26, 1-(5-Methoxy-2-methyl-phenyl)-3-{6-[4-(4-methyl-piperazin-1-yl)-phenyl-amino]-pyrimidin-4-yl}-urea] | 12 to 100 | 67 to 100 | 27 to 100
16 | CCN1CCN(Cc2cccc(Nc3cc(N(C)C(=O)Nc4c(Cl)c(OC)cc(OC)c4Cl)ncn3)c2)CC1 [Example 150, 3-(2,6-Dichloro-3,5-dimethoxy-phenyl)-1-{6-[3-(4-ethyl-piperazin-1-ylmethyl)-phenylamino]-pyrimidin-4-yl}-1-methyl-urea] | 12 to 100 | 67 to 100 | 27 to 100
17 | O=C(Nc1ccccc1)Nc1cc(Nc2cccc(Cl)c2)ncn1 [Example 141, 1-[6-(3-Chloro-phenylamino)-pyrimidin-4-yl]-3-phenyl-urea] | 12 to 100 | 67 to 100 | 27 to 100
18 | COc1ccc(Cl)cc1NC(=O)Nc1cc(Nc2ccc(N3CCN(C)CC3)cc2)ncn1 [Example 78, 1-(5-Chloro-2-methoxy-phenyl)-3-{6-[4-(4-methyl-piperazin-1-yl)-phenylamino]-pyrimidin-4-yl}-urea] | 12 to 100 | 67 to 100 | 27 to 100
19 | CCN(CC)c1ccc(Nc2cc(NC(=O)Nc3c(Cl)cccc3Cl)ncn2)cc1 [Example 107, 1-(2,6-Dichloro-phenyl)-3-[6-(4-diethylamino-phenylamino)-pyrimidin-4-yl]-urea] | 12 to 100 | 67 to 100 | 27 to 100
20 | COc1cc(OC)c(Cl)c(NC(=O)N(C)c2cc(Nc3cccc(CN(C)CCN(C)C)c3)ncn2)c1Cl [Example 162, 3-(2,6-Dichloro-3,5-dimethoxy-phenyl)-1-[6-(3-{[(2-dimethylamino-ethyl)-methyl-amino]-methyl}-phenylamino)-pyrimidin-4-yl]-1-methyl-urea] | 12 to 100 | 67 to 100 | 27 to 100
21 | Cc1cc(C)cc(NC(=O)Nc2cc(Nc3ccc(N4CCN(C)CC4)cc3)ncn2)c1 [Example 22, 1-(3,5-Dimethyl-phenyl)-3-{6-[4-(4-methyl-piperazin-1-yl)-phenyl-amino]-pyrimidin-4-yl}-urea] | 12 to 100 | 67 to 100 | 27 to 100
22 | COc1cc(NC(=O)N(C)c2cc(Nc3cccc(OCCN(C)C)c3)ncn2)c(Cl)c(OC)c1 [Example 54, 3-(2-Chloro-3,5-dimethoxy-phenyl)-1-{6-[3-(2-dimethylamino-ethoxy)-phenylamino]-pyrimidin-4-yl}-1-methyl-urea] | 12 to 100 | 67 to 100 | 27 to 100
23 | CCN(CC)c1ccc(Nc2cc(NC(=O)Nc3c(F)cccc3F)ncn2)cc1 [Example 105, 1-[6-(4-Diethylamino-phenylamino)-pyrimidin-4-yl]-3-(2,6-difluoro-phenyl)-urea] | 12 to 100 | 67 to 100 | 27 to 100
24 | COc1cc(OC)c(Cl)c(NC(=O)N(C)c2cc(Nc3ccc(C)nc3C)ncn2)c1Cl [Example 153, 3-(2,6-Dichloro-3,5-dimethoxy-phenyl)-1-[6-(2,6-dimethyl-pyridin-3-ylamino)-pyrimidin-4-yl]-1-methyl-urea] | 12 to 100 | 67 to 100 | 27 to 100
25 | CN(C(=O)Nc1c(Cl)cccc1Cl)c1cc(Nc2cccc(Cl)c2)ncn1 [Example 124, 1-[6-(3-Chloro-phenylamino)-pyrimidin-4-yl]-3-(2,6-dichloro-phenyl)-1-methyl-urea] | 12 to 100 | 67 to 100 | 27 to 100
26 | CN1CCN(c2ccc(Nc3cc(NC(=O)Nc4cc(C(F)(F)F)cc(C(F)(F)F)c4)ncn3)cc2)CC1 [Example 20, 1-(3,5-Bis-trifluoromethyl-phenyl)-3-{6-[4-(4-methyl-piperazin-1-yl)-phenylamino]-pyrimidin-4-yl}-urea] | 12 to 100 | 67 to 100 | 27 to 100
27 | CNc1cc(NC(=O)Nc2cc(OC)cc(OC)c2Cl)ncn1 [Example 38, 1-(2-Chloro-3,5-dimethoxy-phenyl)-3-(6-methylamino-pyrimidin-4-yl)-urea] | 12 to 100 | 67 to 100 | 27 to 100
28 | COc1cc(C)c(NC(=O)Nc2cc(Nc3cccc(N4CCN(C)CC4)c3)ncn2)cc1OC [Example 35] | 12 to 100 | 67 to 100 | 27 to 100
